# Results taken from PMC9954146, “Anti-Leukaemic Activity of Rilpivirine Is Mediated by Aurora A Kinase Inhibition” (Cancers, 2023).
# Tests used:
# Assay in all cases: Kinase panel
# Format in all cases: biochemical
# Details in all cases: read-out: % Residual Activity
# MYO3B(h) = molecular target: T1, MYO3B(h) (Homo sapiens, UniProt Q8WXR4)
# T1 construct: purchased Eurofins (KinaseProfiler)
# In short: (§1)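 For each panel kinase, rilpivirine inhibition is measured by radioactive phosphate transfer with ATP at that enzyme's Km, […].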
# PKG1β(h) = molecular target: T2, PKG1β(h) (Homo sapiens, UniProt Q13976)
# T2 construct: purchased Eurofins (KinaseProfiler)
# In short: as §1
# Axl(h) = molecular target: T3, Axl(h) (Homo sapiens, UniProt P30530)
# T3 construct: purchased Eurofins (KinaseProfiler)
# In short: as §1
# FGFR2(N549H)(h) = molecular target: T4, FGFR2(N549H)(h) (Homo sapiens, UniProt P21802, N549H)
# T4 construct: purchased Eurofins (KinaseProfiler)
# In short: as §1
# MLK4(h) = molecular target: T5, MLK4(h) (Homo sapiens, UniProt Q5TCX8)
# T5 construct: purchased Eurofins (KinaseProfiler)
# In short: as §1
# Txk(h) = molecular target: T6, Txk(h) (Homo sapiens, UniProt P42681)
# T6 construct: purchased Eurofins (KinaseProfiler)
# In short: as §1
# TTBK1(h) = molecular target: T7, TTBK1(h) (Homo sapiens, UniProt Q5TCY1)
# T7 construct: purchased Eurofins (KinaseProfiler)
# In short: as §1
# [1] = molecular target: T8, PI3 Kinase (p110a/p85a)(m) (Mus musculus, UniProt P42337)
# T8 construct: purchased Eurofins (KinaseProfiler)
# In short: as §1
# FGFR1(h) = molecular target: T9, FGFR1(h) (Homo sapiens, UniProt P11362)
# T9 construct: purchased Eurofins (KinaseProfiler)
# In short: as §1
# IKKα(h) = molecular target: T10, IKKα(h) (Homo sapiens, UniProt O15111)
# T10 construct: purchased Eurofins (KinaseProfiler)
# In short: as §1
# NLK(h) = molecular target: T11, NLK(h) (Homo sapiens, UniProt Q9UBE8)
# T11 construct: purchased Eurofins (KinaseProfiler)
# In short: as §1
# MAP4K4(h) = molecular target: T12, MAP4K4(h) (Homo sapiens, UniProt O95819)
# T12 construct: purchased Eurofins (KinaseProfiler)
# In short: as §1
# Mnk2(h) = molecular target: T13, Mnk2(h) (Homo sapiens, UniProt Q9HBH9)
# T13 construct: purchased Eurofins (KinaseProfiler)
# In short: as §1
# KDR(h) = molecular target: T14, KDR(h) (Homo sapiens, UniProt P35968)
# T14 construct: purchased Eurofins (KinaseProfiler)
# In short: as §1
# Fms(h) = molecular target: T15, Fms(h) (Homo sapiens, UniProt P07333)
# T15 construct: purchased Eurofins (KinaseProfiler)
# In short: as §1
# EphA2(h) = molecular target: T16, EphA2(h) (Homo sapiens, UniProt P29317)
# T16 construct: purchased Eurofins (KinaseProfiler)
# In short: as §1
# IRAK1(h) = molecular target: T17, IRAK1(h) (Homo sapiens, UniProt P51617)
# T17 construct: purchased Eurofins (KinaseProfiler)
# In short: as §1
# MAPK1(h) = molecular target: T18, MAPK1(h) (Homo sapiens, UniProt P27361)
# T18 construct: purchased Eurofins (KinaseProfiler)
# In short: as §1
# CaMKI(h) = molecular target: T19, CaMKI(h) (Homo sapiens, UniProt Q14012)
# T19 construct: purchased Eurofins (KinaseProfiler)
# In short: as §1
# LIMK2(h) = molecular target: T20, LIMK2(h) (Homo sapiens, UniProt P53671)
# T20 construct: purchased Eurofins (KinaseProfiler)
# In short: as §1
# GRK2(h) = molecular target: T21, GRK2(h) (Homo sapiens, UniProt P25098)
# T21 construct: purchased Eurofins (KinaseProfiler)
# In short: as §1
# CHK2(h) = molecular target: T22, CHK2(h) (Homo sapiens, UniProt O96017)
# T22 construct: purchased Eurofins (KinaseProfiler)
# In short: as §1
# PKCθ(h) = molecular target: T23, PKCθ(h) (Homo sapiens, UniProt Q04759)
# T23 construct: purchased Eurofins (KinaseProfiler)
# In short: as §1
# PDGFRα(D842V)(h) = molecular target: T24, PDGFRα(D842V)(h) (Homo sapiens, UniProt P16234, D842V)
# T24 construct: purchased Eurofins (KinaseProfiler)
# In short: as §1
# PKCη(h) = molecular target: T25, PKCη(h) (Homo sapiens, UniProt P24723)
# T25 construct: purchased Eurofins (KinaseProfiler)
# In short: as §1
# ACTR2(h) = molecular target: T26, ACTR2(h) (Homo sapiens, UniProt P27037)
# T26 construct: purchased Eurofins (KinaseProfiler)
# In short: as §1
# TSSK1(h) = molecular target: T27, TSSK1(h) (Homo sapiens, UniProt Q9BXA7)
# T27 construct: purchased Eurofins (KinaseProfiler)
# In short: as §1
# MEK2(h) = molecular target: T28, MEK2(h) (Homo sapiens, UniProt P36507)
# T28 construct: purchased Eurofins (KinaseProfiler)
# In short: as §1
# EphA4(h) = molecular target: T29, EphA4(h) (Homo sapiens, UniProt P54764)
# T29 construct: purchased Eurofins (KinaseProfiler)
# In short: as §1
# MST4(h) = molecular target: T30, MST4(h) (Homo sapiens, UniProt Q9P289)
# T30 construct: purchased Eurofins (KinaseProfiler)
# In short: as §1
# Haspin(h) = molecular target: T31, Haspin(h) (Homo sapiens, UniProt Q8TF76)
# T31 construct: purchased Eurofins (KinaseProfiler)
# In short: as §1
# CDK12/cyclinK(h) = molecular target: T32, CDK12/cyclinK(h) (Homo sapiens, UniProt Q9NYV4)
# T32 construct: purchased Eurofins (KinaseProfiler)
# In short: as §1
# IRE1(h) = molecular target: T33, IRE1(h) (Homo sapiens, UniProt O75460)
# T33 construct: purchased Eurofins (KinaseProfiler)
# In short: as §1
# eEF-2K(h) = molecular target: T34, eEF-2K(h) (Homo sapiens, UniProt O00418)
# T34 construct: purchased Eurofins (KinaseProfiler)
# In short: as §1
# cKit(h) = molecular target: T35, cKit(h) (Homo sapiens, UniProt P10721)
# T35 construct: purchased Eurofins (KinaseProfiler)
# In short: as §1
# CDK5/p25(h) = molecular target: T36, CDK5/p25(h) (Homo sapiens, UniProt Q00535)
# T36 construct: purchased Eurofins (KinaseProfiler)
# In short: as §1
# ULK2(h) = molecular target: T37, ULK2(h) (Homo sapiens, UniProt Q8IYT8)
# T37 construct: purchased Eurofins (KinaseProfiler)
# In short: as §1
# FGFR3(h) = molecular target: T38, FGFR3(h) (Homo sapiens, UniProt P22607)
# T38 construct: purchased Eurofins (KinaseProfiler)
# In short: as §1
# NIM1(h) = molecular target: T39, NIM1(h) (Homo sapiens, UniProt Q8IY84)
# T39 construct: purchased Eurofins (KinaseProfiler)
# In short: as §1
# T7 sequence (Q5TCY1 whole entry): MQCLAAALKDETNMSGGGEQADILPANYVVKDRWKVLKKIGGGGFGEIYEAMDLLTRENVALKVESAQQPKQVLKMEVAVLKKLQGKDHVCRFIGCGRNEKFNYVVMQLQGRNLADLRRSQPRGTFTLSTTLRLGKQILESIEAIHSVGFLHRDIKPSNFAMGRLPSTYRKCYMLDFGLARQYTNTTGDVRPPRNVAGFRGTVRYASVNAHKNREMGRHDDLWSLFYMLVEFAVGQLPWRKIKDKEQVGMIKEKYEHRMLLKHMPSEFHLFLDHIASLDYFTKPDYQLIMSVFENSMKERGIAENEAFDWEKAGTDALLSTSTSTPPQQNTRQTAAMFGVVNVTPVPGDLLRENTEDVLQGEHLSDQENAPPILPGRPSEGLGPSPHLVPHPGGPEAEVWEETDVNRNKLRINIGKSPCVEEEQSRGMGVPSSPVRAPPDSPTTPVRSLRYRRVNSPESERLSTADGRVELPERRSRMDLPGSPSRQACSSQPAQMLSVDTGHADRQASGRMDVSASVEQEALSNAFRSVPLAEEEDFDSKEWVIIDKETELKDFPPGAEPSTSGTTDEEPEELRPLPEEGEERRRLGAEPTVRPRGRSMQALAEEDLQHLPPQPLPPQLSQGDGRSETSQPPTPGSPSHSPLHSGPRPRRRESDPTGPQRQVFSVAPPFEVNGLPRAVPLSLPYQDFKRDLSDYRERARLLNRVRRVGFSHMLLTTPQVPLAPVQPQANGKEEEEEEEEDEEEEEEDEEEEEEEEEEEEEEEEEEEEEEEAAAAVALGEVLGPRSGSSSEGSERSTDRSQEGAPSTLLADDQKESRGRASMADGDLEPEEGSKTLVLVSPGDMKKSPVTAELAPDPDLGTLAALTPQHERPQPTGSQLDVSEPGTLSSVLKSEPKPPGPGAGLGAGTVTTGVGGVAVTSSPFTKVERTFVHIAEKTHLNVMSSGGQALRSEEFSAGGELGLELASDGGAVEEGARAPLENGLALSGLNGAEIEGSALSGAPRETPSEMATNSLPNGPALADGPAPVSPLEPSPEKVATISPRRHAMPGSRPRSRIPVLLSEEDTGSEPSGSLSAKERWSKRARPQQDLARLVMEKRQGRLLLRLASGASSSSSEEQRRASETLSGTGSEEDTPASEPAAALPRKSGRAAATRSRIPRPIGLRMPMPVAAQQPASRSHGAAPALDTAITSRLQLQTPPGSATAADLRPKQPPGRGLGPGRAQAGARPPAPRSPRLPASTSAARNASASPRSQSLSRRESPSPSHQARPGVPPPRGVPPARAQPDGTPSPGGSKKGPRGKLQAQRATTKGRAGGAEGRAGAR
# T25 sequence (P24723 whole entry): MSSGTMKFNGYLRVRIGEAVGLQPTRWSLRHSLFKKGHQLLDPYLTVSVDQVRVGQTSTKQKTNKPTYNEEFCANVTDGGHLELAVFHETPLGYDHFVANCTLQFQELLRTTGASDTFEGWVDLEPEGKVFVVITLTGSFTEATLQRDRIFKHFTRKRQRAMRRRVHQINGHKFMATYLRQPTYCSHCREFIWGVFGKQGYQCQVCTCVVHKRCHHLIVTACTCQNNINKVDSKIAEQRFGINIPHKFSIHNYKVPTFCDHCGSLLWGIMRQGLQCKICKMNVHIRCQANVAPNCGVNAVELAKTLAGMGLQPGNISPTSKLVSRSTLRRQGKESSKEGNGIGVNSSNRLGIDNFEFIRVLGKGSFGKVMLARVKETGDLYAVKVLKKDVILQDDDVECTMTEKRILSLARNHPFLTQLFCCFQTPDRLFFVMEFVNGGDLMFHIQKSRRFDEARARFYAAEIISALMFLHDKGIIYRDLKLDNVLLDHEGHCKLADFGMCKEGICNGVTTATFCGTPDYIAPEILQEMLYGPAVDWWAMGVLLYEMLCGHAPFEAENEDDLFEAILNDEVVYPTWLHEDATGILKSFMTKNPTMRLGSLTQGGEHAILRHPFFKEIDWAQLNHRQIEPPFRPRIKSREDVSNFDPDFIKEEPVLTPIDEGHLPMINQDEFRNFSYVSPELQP
# T12 sequence (O95819 whole entry): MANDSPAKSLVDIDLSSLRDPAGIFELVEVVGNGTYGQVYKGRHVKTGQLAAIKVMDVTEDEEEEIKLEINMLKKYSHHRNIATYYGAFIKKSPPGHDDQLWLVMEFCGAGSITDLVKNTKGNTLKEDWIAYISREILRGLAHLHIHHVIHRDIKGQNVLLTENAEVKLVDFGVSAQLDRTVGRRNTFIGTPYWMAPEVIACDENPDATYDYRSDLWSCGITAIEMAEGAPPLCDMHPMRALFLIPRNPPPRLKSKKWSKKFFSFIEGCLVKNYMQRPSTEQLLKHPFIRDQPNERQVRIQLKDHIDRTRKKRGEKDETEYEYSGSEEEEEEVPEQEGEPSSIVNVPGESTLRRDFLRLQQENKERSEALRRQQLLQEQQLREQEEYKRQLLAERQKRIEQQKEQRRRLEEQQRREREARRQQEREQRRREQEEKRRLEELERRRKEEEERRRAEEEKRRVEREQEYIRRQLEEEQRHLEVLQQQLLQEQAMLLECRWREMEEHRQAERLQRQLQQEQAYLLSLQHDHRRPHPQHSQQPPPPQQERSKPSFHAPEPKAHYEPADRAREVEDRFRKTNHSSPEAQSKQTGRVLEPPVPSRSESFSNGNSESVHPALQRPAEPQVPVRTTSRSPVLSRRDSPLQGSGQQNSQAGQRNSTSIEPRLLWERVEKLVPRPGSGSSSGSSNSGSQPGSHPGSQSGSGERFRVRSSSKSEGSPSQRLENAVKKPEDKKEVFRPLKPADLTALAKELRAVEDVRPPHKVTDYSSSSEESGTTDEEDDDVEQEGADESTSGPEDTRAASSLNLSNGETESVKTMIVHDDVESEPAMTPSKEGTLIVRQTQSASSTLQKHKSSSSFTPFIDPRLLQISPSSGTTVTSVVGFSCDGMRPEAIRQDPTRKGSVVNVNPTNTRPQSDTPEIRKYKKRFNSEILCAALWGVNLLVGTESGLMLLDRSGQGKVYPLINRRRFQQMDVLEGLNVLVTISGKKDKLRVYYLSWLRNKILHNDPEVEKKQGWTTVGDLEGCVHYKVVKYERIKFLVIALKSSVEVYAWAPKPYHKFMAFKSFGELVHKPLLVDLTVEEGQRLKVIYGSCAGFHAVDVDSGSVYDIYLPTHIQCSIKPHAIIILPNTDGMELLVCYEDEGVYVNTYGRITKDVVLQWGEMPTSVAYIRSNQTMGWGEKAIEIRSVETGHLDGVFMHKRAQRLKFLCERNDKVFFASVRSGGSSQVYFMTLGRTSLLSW
# T39 sequence (Q8IY84 whole entry): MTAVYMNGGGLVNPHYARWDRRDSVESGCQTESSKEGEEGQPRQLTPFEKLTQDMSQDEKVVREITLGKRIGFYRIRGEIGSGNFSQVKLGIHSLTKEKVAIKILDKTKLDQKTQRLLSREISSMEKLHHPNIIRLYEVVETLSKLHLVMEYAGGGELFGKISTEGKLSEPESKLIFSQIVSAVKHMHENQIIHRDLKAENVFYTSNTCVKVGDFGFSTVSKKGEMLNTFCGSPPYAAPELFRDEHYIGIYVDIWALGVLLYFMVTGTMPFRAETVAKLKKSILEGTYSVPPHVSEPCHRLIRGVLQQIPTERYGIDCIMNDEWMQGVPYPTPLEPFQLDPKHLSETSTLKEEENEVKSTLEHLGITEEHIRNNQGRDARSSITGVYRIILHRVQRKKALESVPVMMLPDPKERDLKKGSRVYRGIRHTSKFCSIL
# T3 sequence (P30530 26-894): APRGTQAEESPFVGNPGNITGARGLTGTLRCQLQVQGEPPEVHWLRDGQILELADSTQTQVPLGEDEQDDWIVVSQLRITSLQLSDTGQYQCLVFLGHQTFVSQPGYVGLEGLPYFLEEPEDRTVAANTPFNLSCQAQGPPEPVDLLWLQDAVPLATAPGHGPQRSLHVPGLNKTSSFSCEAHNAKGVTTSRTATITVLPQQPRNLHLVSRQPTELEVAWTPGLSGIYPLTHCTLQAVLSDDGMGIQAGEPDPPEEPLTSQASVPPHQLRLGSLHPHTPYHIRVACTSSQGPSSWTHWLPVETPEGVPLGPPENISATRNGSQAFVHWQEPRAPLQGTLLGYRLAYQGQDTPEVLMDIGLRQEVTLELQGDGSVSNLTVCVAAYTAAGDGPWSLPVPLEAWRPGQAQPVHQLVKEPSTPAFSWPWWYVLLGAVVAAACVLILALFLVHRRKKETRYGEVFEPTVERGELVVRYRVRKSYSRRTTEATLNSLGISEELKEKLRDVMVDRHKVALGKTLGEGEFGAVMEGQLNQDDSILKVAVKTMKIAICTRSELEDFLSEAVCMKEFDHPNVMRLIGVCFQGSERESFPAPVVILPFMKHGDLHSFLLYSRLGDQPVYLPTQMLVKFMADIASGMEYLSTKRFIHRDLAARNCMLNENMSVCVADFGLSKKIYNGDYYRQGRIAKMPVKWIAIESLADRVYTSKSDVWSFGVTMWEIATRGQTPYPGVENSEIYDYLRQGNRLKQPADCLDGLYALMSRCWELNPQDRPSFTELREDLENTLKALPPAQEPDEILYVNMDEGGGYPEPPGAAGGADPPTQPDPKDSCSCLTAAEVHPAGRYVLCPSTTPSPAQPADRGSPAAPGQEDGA
# T30 sequence (Q9P289 whole entry): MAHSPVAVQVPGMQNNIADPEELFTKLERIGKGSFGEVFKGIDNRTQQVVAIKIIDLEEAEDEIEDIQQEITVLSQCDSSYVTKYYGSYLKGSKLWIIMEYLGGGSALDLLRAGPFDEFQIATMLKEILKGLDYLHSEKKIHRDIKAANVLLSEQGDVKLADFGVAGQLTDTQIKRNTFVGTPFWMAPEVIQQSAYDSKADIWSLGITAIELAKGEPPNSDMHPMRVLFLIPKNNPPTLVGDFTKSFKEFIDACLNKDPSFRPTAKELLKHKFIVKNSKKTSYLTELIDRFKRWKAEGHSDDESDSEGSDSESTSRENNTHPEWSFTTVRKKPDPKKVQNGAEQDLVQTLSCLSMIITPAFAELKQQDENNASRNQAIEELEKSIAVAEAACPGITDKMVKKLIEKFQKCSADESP
structure (smiles),measurement,setting,value
"Cc1cc(/C=C/C#N)cc(C)c1Nc1ccnc(Nc2ccc(C#N)cc2)n1 [rilpivirine, (E)-4-((4-((4-(2-cyanoethenyl)-2,6-dimethylphenyl)amino)pyrimidin-2-yl)amino)benzonitrile]",remaining activity at 1 µM,MYO3B(h),96%
same,remaining activity at 1 µM,PKG1β(h),79%
same,remaining activity at 1 µM,Axl(h),98%
same,remaining activity at 1 µM,FGFR2(N549H)(h),91%
same,remaining activity at 1 µM,MLK4(h),95%
same,remaining activity at 1 µM,Txk(h),79%
same,remaining activity at 1 µM,TTBK1(h),90%
same,remaining activity at 1 µM,[1],100%
same,remaining activity at 1 µM,FGFR1(h),94%
same,remaining activity at 1 µM,IKKα(h),85%
same,remaining activity at 1 µM,NLK(h),64%
same,remaining activity at 1 µM,MAP4K4(h),79%
same,remaining activity at 1 µM,Mnk2(h),85%
same,remaining activity at 1 µM,KDR(h),85%
same,remaining activity at 1 µM,Fms(h),91%
same,remaining activity at 1 µM,EphA2(h),72%
same,remaining activity at 1 µM,IRAK1(h),84%
same,remaining activity at 1 µM,MAPK1(h),90%
same,remaining activity at 1 µM,CaMKI(h),92%
same,remaining activity at 1 µM,LIMK2(h),71%
same,remaining activity at 1 µM,GRK2(h),81%
same,remaining activity at 1 µM,CHK2(h),93%
same,remaining activity at 1 µM,PKCθ(h),66%
same,remaining activity at 1 µM,PDGFRα(D842V)(h),79%
same,remaining activity at 1 µM,PKCη(h),103%
same,remaining activity at 1 µM,ACTR2(h),91%
same,remaining activity at 1 µM,TSSK1(h),86%
same,remaining activity at 1 µM,MEK2(h),92%
same,remaining activity at 1 µM,EphA4(h),93%
same,remaining activity at 1 µM,MST4(h),91%
same,remaining activity at 1 µM,Haspin(h),61%
same,remaining activity at 1 µM,CDK12/cyclinK(h),85%
same,remaining activity at 1 µM,IRE1(h),100%
same,remaining activity at 1 µM,eEF-2K(h),92%
same,remaining activity at 1 µM,cKit(h),99%
same,remaining activity at 1 µM,CDK5/p25(h),97%
same,remaining activity at 1 µM,ULK2(h),90%
same,remaining activity at 1 µM,FGFR3(h),98%
same,remaining activity at 1 µM,NIM1(h),88%
